According to article PMC5640650, “NatD promotes lung cancer progression by preventing histone H4 serine phosphorylation to activate Slug expression” (Nature Communications, 2017):

Legend:
LLC cells [1] = assay: Transwell migration and invasion assay, LLC cells; format: cell-based, murine; settings: LLC cells in vitro, vs Scr
CK2α = CK2α localization by confocal immunofluorescence / western blot, H1299 cells; format: cell-based, human; settings: NatD knockdown H1299 cells
Text: Fig. 7 Downregulation of Nt-acetylation of histone H4 facilitates nuclear accumulation of CK2α and its binding to histone H4 in lung cancer cells. a Representative confocal scanning images of CK2α localization in Scr and H1299 cells (left panel). The staining intensity of CK2α was quantified by software ImageJ from NIH (right diagram). Scale bars, 5 μm. […] Equal peptide biotinylated on C terminus is shown by dot blot analysis with streptavidin (middle panel). […] IgG served as a negative control. Results are shown as mean ± s.d. from three independent experiments; two-tailed Student’s t-test, **P < 0.01 compared with the indicated control. g Quantitative real-time PCR analysis of mRNA levels of CK2α and Slug normalized to GAPDH in Scr and NatD-KD H1299 cells in the absence or presence of siRNA to CK2α. NC, siRNA mimics negative control. […]
For immunofluorescence assays, cells were fixed with 4% formaldehyde for 5 min at room temperature. […] Sub-cellular distribution of CK2α was analyzed by confocal scanning microscopy (Olympus FV10i). The relative intracellular distribution of CK2α in each experimental sample was calculated as the nuclear to total (cytoplasmic + nuclear) ratio by measuring the intensity of the signals in each cellular compartment with the aid of ImageJ software (NIH). […]

LLC cells [2] = assay: Orthotopic implantation in C57BL/6 mice, LLC cells; format: in vivo, murine; settings: pleural cavity, 14 days, n = 5, vs Scr
Method: All animal care and handling procedures were performed in accordance with the National Institutes of Health Guide for the Care and Use of Laboratory Animals, and were approved by the Institutional Review Board of Nanjing University (Nanjing, China). Female SCID mice and C57BL/6 mice (6–8 week old) were purchased from the Model Animal Research Center of Nanjing University (Nanjing, China), and were maintained under specific pathogen-free conditions at Nanjing University. The sample size was chosen with adequate power on the basis of the literature and our previous experience[46] and for each experiment it is indicated in the figure legend. Prior to carrying out the experiment, mice were randomly assigned to two different treatment groups (NatD-KD or Scr). For xenograft studies, 1 × 10^6 cells were resuspended in 100 µl PBS and injected into the lateral tail vein. Lung nodules and progression were monitored and quantified using the bioluminescence system (Caliper IVIS Lumina XR) or by counting under a dissecting microscope. […] Mice were killed at day 28 or day 30 to collect lungs, and lung nodules in serial sections were quantified microscopically. […] Lung nodules and progression were monitored and quantified using the bioluminescence system (Caliper IVIS Lumina XR). Mice were killed at day 14 or day 21 to collect lungs, and lung nodules in serial sections were quantified microscopically. […]

## NatD-KD2: Human NatD shRNA KD2: 5′-GGTTGAATGTCTCCATTGA-3′, lentiviral (shRNA lentiviral)
LLC cells [1]
  migratory and invasive capabilities: significantly decreased
CK2α
  CK2α in the cytoplasm (western blot): no detectable levels
CK2α; more than 30 cells (Scr: about 70%)
  CK2α localized in the nucleus: ~100%
LLC cells [2]
  migration and invasion, orthotopic model: significantly reduced
